The source of these data is paper PMC11040104, “The two C. elegans class VI myosins, SPE-15/HUM-3 and HUM-8, share similar motor properties, but have distinct developmental and tissue expression patterns” (Frontiers in Physiology, 2024).

Test [1] has as its target T1, HUM-8 (Caenorhabditis elegans, UniProt U4PBY2).
T1 construct: motor-neck domain residues 61-904, N-terminal 6xHis, C-terminal GSG linker + RGSIDTWV tag kept; co-expressed with human calmodulin in ExpiSf9; with Actin, alpha skeletal muscle (rabbit, Oryctolagus cuniculus); Calmodulin (human light chain, co-expressed)
T1 sequence (U4PBY2 61-904): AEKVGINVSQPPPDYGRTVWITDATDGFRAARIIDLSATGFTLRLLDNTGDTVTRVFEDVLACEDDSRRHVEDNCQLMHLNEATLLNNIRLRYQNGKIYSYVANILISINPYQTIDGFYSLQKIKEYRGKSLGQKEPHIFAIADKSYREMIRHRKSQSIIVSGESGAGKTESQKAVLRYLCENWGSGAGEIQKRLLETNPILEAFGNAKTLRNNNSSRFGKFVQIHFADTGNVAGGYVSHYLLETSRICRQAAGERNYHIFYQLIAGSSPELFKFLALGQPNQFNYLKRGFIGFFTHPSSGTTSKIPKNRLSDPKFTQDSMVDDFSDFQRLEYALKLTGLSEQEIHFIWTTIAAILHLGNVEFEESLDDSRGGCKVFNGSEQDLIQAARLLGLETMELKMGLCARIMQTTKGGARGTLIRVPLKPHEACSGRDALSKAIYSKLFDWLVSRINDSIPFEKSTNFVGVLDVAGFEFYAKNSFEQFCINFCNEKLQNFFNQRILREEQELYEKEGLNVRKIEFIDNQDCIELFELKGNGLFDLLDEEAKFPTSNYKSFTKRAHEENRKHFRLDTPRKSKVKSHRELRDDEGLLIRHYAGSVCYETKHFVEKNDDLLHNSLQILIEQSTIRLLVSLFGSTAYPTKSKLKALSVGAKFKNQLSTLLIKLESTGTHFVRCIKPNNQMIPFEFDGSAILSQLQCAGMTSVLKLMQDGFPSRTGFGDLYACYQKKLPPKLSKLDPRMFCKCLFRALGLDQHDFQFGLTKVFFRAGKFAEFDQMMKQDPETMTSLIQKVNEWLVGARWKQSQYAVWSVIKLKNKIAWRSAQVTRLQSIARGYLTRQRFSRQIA
In words: stopped-flow pyrene-actin, ADP/ATP competition. The test is classed as binding. The conditions noted are these: bound to pyrene-labelled rabbit F-actin; competition with ATP; pH 7.0, 20 °C, 25 mM KCl, 5 mM MgCl2, probably misprint for µM; read-out: affinity for ADP.

In test [2] the target is T2, human MYO6 (Homo sapiens, UniProt Q9UM54).
T2 construct: with Actin, alpha skeletal muscle (rabbit, Oryctolagus cuniculus); Calmodulin (light chain)
The test can be described thus: stopped-flow pyrene-actin, ADP/ATP competition. The class given is binding. The conditions noted are these: bound to pyrene-labelled rabbit F-actin; competition with ATP; pH 7.0, 20 °C, 25 mM KCl, 5 mM MgCl2, probably misprint for µM; read-out: affinity for ADP.

Test [3] deals with T3, SPE-15/HUM-3 (Caenorhabditis elegans, UniProt Q9TZI9).
T3 construct: motor-neck domain residues 1-841, N-terminal 6xHis, C-terminal GSG linker + RGSIDTWV tag kept; co-expressed with human calmodulin in ExpiSf9; with Actin, alpha skeletal muscle (rabbit, Oryctolagus cuniculus); Calmodulin (human light chain, co-expressed)
The test can be described thus: stopped-flow pyrene-actin, ADP/ATP competition. The class given is binding. The conditions noted are these: bound to pyrene-labelled rabbit F-actin; competition with ATP; pH 7.0, 20 °C, 25 mM KCl, 5 mM MgCl2, probably misprint for µM; read-out: affinity for ADP.

Test [4] addresses T1, HUM-8. The test can be described thus: stopped-flow, ATP-induced dissociation of pyrene-actin.myosin. The test is classed as binding. The conditions noted are these: bound to pyrene-labelled rabbit F-actin, pH 7.0, 20 °C, 25 mM KCl, 5 mM MgCl2, not an affinity.
Test [5] concerns the target T2, human MYO6. Described as above. The class given is binding. The conditions noted are these: bound to pyrene-labelled rabbit F-actin, pH 7.0, 20 °C, 25 mM KCl, 5 mM MgCl2, not an affinity.
The target of test [6] is T3, SPE-15/HUM-3. Described as above. The class given is binding. The conditions noted are these: bound to pyrene-labelled rabbit F-actin, pH 7.0, 20 °C, 25 mM KCl, 5 mM MgCl2, not an affinity.
In test [7] the target is rabbit muscle actin, pyrene-labelled (F-actin) (rabbit) (UniProt P68135).
Test [8] shares this target. The test can be described thus: other fluorescence titration; stopped-flow; amplitude of ATP-induced dissociation of pyrene-actin.myosin against myosin concentration, quadratic fit; 20°C, 20 mM MOPS pH 7.0, 25 mM KCl, 5 mM MgCl2, 1 mM DTT.

T3 sequence (Q9TZI9 1-841): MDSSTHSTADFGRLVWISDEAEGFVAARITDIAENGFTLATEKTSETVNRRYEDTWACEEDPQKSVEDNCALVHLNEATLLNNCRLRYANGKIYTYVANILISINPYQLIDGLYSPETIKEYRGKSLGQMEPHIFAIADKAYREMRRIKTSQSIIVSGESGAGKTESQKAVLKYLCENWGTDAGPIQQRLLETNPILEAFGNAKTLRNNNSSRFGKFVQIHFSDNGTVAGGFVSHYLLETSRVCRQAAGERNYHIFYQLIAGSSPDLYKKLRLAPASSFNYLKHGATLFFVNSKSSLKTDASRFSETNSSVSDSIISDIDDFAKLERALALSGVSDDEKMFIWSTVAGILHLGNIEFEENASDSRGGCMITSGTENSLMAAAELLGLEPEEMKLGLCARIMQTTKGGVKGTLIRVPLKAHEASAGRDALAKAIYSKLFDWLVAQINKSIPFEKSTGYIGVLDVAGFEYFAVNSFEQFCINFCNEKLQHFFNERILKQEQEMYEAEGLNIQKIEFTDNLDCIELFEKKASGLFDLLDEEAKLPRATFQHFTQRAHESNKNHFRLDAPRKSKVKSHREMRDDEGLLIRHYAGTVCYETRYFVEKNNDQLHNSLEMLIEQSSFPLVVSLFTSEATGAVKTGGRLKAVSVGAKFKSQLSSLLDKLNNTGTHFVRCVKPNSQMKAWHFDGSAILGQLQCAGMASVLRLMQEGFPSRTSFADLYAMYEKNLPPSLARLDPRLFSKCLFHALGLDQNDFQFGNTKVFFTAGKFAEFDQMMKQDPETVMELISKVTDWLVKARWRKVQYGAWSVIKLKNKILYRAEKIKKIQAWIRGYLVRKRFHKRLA
T2 sequence (Q9UM54 1-840 limits assumed): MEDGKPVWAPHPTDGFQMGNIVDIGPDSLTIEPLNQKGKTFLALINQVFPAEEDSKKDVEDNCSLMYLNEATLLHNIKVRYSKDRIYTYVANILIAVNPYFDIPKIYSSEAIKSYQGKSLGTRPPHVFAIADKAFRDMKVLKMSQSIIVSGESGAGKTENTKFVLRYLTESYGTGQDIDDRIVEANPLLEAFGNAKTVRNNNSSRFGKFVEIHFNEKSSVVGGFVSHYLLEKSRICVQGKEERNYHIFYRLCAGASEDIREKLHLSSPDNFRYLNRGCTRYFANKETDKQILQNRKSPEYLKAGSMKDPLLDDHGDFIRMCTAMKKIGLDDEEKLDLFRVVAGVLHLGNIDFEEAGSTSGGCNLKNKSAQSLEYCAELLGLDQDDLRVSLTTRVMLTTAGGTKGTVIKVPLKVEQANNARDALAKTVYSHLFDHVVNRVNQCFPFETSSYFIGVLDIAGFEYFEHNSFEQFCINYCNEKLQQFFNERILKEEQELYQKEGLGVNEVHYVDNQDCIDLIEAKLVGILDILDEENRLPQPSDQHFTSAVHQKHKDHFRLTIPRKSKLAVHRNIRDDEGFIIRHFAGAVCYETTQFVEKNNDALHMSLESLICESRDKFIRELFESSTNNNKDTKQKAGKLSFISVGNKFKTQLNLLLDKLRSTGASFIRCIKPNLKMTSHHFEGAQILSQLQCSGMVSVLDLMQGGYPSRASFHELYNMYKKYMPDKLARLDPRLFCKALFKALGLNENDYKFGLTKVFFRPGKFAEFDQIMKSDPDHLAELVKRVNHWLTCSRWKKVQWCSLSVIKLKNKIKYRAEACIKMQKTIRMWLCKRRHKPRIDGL
Chain of human MYO6 motor domain (Q9UM54 whole entry, the tested form may be a part): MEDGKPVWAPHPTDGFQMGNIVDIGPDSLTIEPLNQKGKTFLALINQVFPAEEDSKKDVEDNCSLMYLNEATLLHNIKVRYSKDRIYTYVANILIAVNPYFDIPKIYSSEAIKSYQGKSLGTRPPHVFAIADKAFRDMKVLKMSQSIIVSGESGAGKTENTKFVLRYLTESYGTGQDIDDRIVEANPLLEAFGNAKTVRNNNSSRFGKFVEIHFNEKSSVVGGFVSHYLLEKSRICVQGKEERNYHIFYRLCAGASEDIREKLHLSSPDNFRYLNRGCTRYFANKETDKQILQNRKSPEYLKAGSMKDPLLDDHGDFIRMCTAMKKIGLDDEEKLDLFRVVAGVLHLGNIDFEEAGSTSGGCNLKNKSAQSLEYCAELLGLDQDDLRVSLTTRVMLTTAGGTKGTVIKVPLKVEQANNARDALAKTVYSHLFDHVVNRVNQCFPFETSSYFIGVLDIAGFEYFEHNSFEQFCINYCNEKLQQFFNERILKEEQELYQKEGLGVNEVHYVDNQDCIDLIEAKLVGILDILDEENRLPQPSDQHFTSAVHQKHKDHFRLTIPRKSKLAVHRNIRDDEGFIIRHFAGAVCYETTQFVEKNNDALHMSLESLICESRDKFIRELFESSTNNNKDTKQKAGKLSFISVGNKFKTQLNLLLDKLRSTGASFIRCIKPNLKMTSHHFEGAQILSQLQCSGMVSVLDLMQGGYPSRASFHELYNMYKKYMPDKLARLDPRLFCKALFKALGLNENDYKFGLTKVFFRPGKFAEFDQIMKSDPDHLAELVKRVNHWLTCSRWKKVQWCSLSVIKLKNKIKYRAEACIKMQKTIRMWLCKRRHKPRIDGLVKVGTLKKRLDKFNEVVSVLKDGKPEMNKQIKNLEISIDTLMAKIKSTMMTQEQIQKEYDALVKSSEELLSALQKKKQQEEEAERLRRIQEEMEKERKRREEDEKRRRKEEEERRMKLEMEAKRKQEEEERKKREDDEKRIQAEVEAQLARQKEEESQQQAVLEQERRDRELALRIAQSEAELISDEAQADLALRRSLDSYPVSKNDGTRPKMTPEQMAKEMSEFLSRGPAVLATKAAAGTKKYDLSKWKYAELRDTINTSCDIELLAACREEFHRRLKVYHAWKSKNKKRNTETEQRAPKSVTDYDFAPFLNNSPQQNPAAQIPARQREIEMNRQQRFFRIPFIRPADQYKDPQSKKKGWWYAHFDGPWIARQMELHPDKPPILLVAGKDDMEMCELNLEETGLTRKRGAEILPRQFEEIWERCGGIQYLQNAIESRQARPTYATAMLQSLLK

For the compound `Nc1ncnc2c1ncn2[C@@H]1O[C@H](COP(=O)(O)OP(=O)(O)O)[C@@H](O)[C@H]1O` [ADP], the values for the Kd on HUM-8 [1], on human MYO6 [2] and on SPE-15/HUM-3 [3] were 20000 ± 2000 µM, 6000 ± 800 µM and 18000 ± 4000 µM, respectively.
Turning to `Nc1ncnc2c1ncn2[C@@H]1O[C@H](COP(=O)(O)OP(=O)(O)OP(=O)(O)O)[C@@H](O)[C@H]1O` [ATP], the results for the “apparent second order rate constant for ATP binding” value on HUM-8 [4], at human MYO6 [5] and at SPE-15/HUM-3 [6] were 3000 ± 500 M⁻¹ s⁻¹, 5000 ± 400 M⁻¹ s⁻¹ and 9000 ± 800 M⁻¹ s⁻¹, respectively.
In the case of “human MYO6 motor domain (from UniProt Q9UM54 1-1294) (domain or fragment)”, the in vitro motility assay: gliding velocity of rhodamine-phalloidin labelled actin filaments on surface-immobilised myosin in test [7] worked out at 55 nm/s. Besides, in test [8], the Kd was 15 nM.
